Measurements published in ChEMBL document CHEMBL3817824, “Synthesis and biological evaluation of new [1,2,4]triazolo[4,3-a]pyridine derivatives as potential c-Met inhibitors” (Bioorg Med Chem, 2016).

Experiments:
[1] = target: Proto-oncogene tyrosine-protein kinase Src (Homo sapiens, UniProt P12931); test: Inhibition of SRC (unknown origin) incubated for 1 hr by spectrophotometric analysis
[2] = target: Tyrosine-protein kinase Fer (Homo sapiens, UniProt P16591); test: Inhibition of FER (unknown origin) incubated for 1 hr by spectrophotometric analysis
[3] = target: Vascular endothelial growth factor receptor 3 (Homo sapiens, UniProt P35916); test: Inhibition of FLT4 (unknown origin) incubated for 1 hr by spectrophotometric analysis
[4] = Cytotoxicity against human HCCLM3 cells assessed as reduction in cell survival incubated for 3 days by cell titre-glo assay; format: functional, cell-based; conditions: HCCLM3, 72 h
NCI-H1993 = test: Cytotoxicity against human NCI-H1993 cells assessed as reduction in cell survival incubated for 3 days by cell titre-glo assay; format: functional, cell-based; conditions: NCI-H1993, 72 h
[5] = target: Tyrosine-protein kinase ABL1 (Homo sapiens, UniProt P00519); test: Inhibition of ABL (unknown origin) incubated for 1 hr by spectrophotometric analysis
[6] = target: Serine/threonine-protein kinase N1 (Homo sapiens, UniProt Q16512); test: Inhibition of PKN1 (unknown origin) incubated for 1 hr by spectrophotometric analysis
Serine/threonine-protein kinase N1, sequence (Q16512 whole entry): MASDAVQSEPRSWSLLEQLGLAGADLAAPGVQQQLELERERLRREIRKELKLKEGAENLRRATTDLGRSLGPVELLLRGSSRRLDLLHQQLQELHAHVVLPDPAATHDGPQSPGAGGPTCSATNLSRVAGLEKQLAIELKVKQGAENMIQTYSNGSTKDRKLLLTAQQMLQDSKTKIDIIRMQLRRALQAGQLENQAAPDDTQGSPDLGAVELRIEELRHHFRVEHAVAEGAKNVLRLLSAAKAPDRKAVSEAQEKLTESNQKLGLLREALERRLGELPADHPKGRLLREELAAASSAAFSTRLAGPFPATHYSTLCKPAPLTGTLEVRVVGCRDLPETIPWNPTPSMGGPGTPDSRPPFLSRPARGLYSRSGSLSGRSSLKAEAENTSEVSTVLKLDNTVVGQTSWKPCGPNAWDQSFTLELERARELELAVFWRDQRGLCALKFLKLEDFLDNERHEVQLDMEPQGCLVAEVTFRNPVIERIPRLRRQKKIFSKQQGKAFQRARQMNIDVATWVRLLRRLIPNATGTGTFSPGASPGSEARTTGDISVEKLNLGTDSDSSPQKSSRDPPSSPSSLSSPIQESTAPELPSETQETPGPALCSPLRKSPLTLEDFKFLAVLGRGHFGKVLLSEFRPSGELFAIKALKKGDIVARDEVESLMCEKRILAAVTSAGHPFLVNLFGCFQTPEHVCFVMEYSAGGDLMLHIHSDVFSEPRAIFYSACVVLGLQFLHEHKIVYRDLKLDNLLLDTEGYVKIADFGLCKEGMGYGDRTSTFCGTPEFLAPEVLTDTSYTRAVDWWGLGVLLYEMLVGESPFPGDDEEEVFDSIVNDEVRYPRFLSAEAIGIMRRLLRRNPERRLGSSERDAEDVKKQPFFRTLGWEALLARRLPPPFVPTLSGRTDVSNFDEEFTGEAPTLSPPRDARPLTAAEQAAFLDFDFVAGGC

NCI-N87 = test: Cytotoxicity against human NCI-N87 cells assessed as reduction in cell survival incubated for 3 days by cell titre-glo assay; format: functional, cell-based; conditions: NCI-N87, 72 h
[7] = target: Epidermal growth factor receptor (Homo sapiens, UniProt P00533, T790M); test: Inhibition of EGFR T790M mutant (unknown origin) incubated for 1 hr by spectrophotometric analysis; format: protein assay
Epidermal growth factor receptor (Homo sapiens, UniProt P00533, T790M), sequence (P00533 25-1210 T790M limits assumed): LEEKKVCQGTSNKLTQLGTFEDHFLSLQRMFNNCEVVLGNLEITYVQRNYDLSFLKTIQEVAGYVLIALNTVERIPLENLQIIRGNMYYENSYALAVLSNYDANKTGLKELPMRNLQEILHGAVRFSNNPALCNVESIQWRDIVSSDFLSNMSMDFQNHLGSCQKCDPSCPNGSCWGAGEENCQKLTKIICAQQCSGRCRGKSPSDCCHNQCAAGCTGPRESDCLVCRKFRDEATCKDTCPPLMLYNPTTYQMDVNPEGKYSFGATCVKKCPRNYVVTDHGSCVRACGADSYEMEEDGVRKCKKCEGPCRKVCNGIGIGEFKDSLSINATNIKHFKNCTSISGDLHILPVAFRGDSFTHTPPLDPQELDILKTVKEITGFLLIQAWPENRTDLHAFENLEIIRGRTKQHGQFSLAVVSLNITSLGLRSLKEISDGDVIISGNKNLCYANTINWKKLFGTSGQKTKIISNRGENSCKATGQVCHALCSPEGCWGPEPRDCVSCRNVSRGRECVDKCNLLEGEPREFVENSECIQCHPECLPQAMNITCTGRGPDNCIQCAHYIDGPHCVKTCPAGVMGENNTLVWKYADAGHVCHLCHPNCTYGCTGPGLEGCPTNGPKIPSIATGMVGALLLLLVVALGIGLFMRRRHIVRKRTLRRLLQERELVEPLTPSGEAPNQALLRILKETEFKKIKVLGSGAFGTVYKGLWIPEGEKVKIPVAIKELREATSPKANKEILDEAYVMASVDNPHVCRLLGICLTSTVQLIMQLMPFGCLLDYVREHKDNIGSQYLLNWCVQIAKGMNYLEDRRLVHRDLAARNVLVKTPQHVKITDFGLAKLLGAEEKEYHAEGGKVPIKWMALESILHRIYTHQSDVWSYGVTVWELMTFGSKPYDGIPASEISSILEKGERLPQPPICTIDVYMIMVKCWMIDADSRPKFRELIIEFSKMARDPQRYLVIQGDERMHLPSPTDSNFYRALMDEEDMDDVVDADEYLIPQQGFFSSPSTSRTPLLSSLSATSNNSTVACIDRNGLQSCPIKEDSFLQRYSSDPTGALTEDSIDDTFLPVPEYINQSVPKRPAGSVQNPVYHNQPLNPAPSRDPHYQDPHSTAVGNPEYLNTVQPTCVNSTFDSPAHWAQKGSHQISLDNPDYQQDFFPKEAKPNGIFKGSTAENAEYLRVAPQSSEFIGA

[8] = target: Macrophage-stimulating protein receptor (Homo sapiens, UniProt Q04912); test: Inhibition of RON (unknown origin) incubated for 1 hr by spectrophotometric analysis
[9] = target: Tyrosine-protein kinase ABL2 (Homo sapiens, UniProt P42684); test: Inhibition of ARG (unknown origin) incubated for 1 hr by spectrophotometric analysis
[10] = target: Protein kinase C alpha type (Homo sapiens, UniProt P17252); test: Inhibition of PKCalpha (unknown origin) incubated for 1 hr by spectrophotometric analysis
Angiopoietin-1 receptor = Angiopoietin-1 receptor (Homo sapiens, UniProt Q02763); test: Inhibition of TIE2 (unknown origin) incubated for 1 hr by spectrophotometric analysis
Angiopoietin-1 receptor, sequence (Q02763 whole entry): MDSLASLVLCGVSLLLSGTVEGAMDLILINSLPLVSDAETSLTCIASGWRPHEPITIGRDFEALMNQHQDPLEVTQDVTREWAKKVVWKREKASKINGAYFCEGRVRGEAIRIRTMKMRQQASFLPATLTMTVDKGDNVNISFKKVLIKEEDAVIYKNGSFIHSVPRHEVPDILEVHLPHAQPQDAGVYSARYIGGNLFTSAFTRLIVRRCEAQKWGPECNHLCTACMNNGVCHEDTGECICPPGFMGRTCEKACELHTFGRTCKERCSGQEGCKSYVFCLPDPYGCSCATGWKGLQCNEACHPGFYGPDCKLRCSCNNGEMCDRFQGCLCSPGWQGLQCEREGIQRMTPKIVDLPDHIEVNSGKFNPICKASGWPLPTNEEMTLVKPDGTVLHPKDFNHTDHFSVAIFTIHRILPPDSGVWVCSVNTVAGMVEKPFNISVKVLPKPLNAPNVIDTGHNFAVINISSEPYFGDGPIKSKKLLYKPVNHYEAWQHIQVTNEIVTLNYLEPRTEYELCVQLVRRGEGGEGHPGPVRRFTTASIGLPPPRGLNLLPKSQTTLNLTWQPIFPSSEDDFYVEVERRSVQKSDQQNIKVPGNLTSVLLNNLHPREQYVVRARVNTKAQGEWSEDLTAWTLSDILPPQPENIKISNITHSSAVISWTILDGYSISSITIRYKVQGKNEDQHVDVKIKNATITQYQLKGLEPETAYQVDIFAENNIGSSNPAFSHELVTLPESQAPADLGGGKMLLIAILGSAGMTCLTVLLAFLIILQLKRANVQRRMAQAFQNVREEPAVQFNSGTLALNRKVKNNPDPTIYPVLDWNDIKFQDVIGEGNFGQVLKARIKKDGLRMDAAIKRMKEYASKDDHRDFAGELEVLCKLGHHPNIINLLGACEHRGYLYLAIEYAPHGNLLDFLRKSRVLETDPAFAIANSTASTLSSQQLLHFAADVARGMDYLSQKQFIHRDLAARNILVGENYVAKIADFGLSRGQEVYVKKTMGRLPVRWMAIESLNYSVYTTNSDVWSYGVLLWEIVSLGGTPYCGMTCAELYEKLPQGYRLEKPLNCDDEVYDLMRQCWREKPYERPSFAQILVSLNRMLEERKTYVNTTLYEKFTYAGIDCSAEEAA

Insulin receptor = Insulin receptor (Homo sapiens, UniProt P06213); test: Inhibition of INSR (unknown origin) incubated for 1 hr by spectrophotometric analysis
[11] = target: Vascular endothelial growth factor receptor 1 (Homo sapiens, UniProt P17948); test: Inhibition of FLT1 (unknown origin) incubated for 1 hr by spectrophotometric analysis
[12] = target: Proto-oncogene tyrosine-protein kinase receptor Ret (Homo sapiens, UniProt P07949); test: Inhibition of RET (unknown origin) incubated for 1 hr by spectrophotometric analysis
[13] = target: Receptor-type tyrosine-protein kinase FLT3 (Homo sapiens, UniProt P36888); test: Inhibition of FLT3 (unknown origin) incubated for 1 hr by spectrophotometric analysis
Receptor-type tyrosine-protein kinase FLT3, sequence (P36888 whole entry): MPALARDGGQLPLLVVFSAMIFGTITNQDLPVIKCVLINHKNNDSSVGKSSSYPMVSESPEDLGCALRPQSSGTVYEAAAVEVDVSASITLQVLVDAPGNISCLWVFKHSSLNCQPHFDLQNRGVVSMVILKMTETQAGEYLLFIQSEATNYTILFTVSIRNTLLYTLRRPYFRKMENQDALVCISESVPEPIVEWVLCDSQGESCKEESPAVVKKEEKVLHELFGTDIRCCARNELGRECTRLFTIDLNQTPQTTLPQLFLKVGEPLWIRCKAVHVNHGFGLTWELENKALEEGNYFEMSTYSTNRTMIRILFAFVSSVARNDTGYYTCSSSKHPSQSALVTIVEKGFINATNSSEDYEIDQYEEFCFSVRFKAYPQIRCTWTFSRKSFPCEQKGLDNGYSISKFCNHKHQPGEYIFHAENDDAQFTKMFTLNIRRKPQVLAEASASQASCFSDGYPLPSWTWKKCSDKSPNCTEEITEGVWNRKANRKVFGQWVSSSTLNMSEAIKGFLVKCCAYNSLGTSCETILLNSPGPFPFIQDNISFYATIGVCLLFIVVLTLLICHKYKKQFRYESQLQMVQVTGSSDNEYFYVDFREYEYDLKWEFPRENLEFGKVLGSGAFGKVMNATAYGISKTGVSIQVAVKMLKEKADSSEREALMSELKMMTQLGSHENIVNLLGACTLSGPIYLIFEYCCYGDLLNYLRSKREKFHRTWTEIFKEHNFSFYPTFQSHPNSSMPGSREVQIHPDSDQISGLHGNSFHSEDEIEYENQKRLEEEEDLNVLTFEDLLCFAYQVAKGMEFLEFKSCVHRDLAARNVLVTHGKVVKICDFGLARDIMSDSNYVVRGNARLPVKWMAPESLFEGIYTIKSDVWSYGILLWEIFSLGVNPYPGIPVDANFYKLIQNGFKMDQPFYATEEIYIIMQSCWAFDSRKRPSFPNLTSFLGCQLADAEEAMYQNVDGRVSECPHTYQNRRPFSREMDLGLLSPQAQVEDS

[14] = target: Tyrosine-protein kinase BTK (Homo sapiens, UniProt Q06187); test: Inhibition of BTK (unknown origin) incubated for 1 hr by spectrophotometric analysis
Tyrosine-protein kinase BTK, sequence (Q06187 whole entry): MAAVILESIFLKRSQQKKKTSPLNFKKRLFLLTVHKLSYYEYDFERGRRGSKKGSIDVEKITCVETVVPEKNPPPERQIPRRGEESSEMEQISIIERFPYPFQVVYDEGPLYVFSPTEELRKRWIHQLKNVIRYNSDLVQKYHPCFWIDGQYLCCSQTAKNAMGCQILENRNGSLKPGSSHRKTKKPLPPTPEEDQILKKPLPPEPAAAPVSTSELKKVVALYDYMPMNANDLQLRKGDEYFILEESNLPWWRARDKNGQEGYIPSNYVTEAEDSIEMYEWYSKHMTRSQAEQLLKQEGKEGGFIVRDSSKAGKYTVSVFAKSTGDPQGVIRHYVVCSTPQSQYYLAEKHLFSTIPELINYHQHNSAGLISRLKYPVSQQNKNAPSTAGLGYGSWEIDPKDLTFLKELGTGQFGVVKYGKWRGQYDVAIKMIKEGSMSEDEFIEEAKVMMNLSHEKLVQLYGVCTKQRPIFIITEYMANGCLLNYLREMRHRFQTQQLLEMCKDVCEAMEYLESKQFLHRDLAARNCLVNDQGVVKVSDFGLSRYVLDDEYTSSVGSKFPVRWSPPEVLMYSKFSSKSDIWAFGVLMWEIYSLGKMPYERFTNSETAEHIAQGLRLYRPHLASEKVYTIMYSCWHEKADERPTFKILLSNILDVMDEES

[15] = target: Fibroblast growth factor receptor 2 (Homo sapiens, UniProt P21802); test: Inhibition of FGFR2 (unknown origin) incubated for 1 hr by spectrophotometric analysis
[16] = Cytotoxicity against human MKN45 cells assessed as reduction in cell survival incubated for 3 days by cell titre-glo assay; format: functional, cell-based; conditions: MKN-45, 72 h
[17] = target: Tyrosine-protein kinase SYK (Homo sapiens, UniProt P43405); test: Inhibition of SYK (unknown origin) incubated for 1 hr by spectrophotometric analysis
Ephrin type-A receptor 2 = Ephrin type-A receptor 2 (Homo sapiens, UniProt P29317); test: Inhibition of ECK (unknown origin) incubated for 1 hr by spectrophotometric analysis
[18] = target: Epidermal growth factor receptor (Homo sapiens, UniProt P00533, L858R/T790M); test: Inhibition of EGFR T790M/L858R mutant (unknown origin) incubated for 1 hr by spectrophotometric analysis; format: protein assay
[19] = target: Tyrosine-protein kinase Fyn (Homo sapiens, UniProt P06241); test: Inhibition of FYN (unknown origin) incubated for 1 hr by spectrophotometric analysis
[20] = target: Mitogen-activated protein kinase 14 (Homo sapiens, UniProt Q16539); test: Inhibition of p38alpha (unknown origin) incubated for 1 hr by spectrophotometric analysis
Ephrin type-B receptor 2 = Ephrin type-B receptor 2 (Homo sapiens, UniProt P29323); test: Inhibition of EPHB2 (unknown origin) incubated for 1 hr by spectrophotometric analysis
[21] = target: Tyrosine-protein kinase JAK1 (Homo sapiens, UniProt P23458); test: Inhibition of JAK1 (unknown origin) incubated for 1 hr by spectrophotometric analysis

CN1C(=O)COc2c1cnc1ccc(Sc3nnc4c(F)cc(-c5cnn(C)c5)cn34)cc21 [DALMELITINIB]
IC50 [1]: 15.5 µM | IC50 [2]: > 30 µM | IC50 [3]: > 30 µM | IC50 [4]: 0.033 µM | IC50 (NCI-H1993): 0.014 µM | IC50 [5]: > 30 µM | IC50 [6]: > 30 µM | IC50 (NCI-N87): > 10 µM | IC50 [7]: > 30 µM | IC50 [8]: > 30 µM | IC50 [9]: > 30 µM | IC50 [10]: > 30 µM | IC50 (Angiopoietin-1 receptor): > 30 µM | IC50 (Insulin receptor): > 30 µM | IC50 [11]: > 30 µM | IC50 [12]: > 30 µM | IC50 [13]: > 30 µM | IC50 [14]: > 30 µM | IC50 [15]: > 30 µM | IC50 [16]: 0.006 µM | IC50 [17]: > 30 µM | IC50 (Ephrin type-A receptor 2): > 30 µM | IC50 [18]: > 30 µM | IC50 [19]: 11.2 µM | IC50 [20]: > 30 µM | IC50 (Ephrin type-B receptor 2): > 30 µM | IC50 [21]: > 30 µM
